For one test, the system named is NCI-H1373 cells. As to the kind of experiment: NCI-H1373 CellTiter-Glo cell assay for TIPARP inhibition. It is filed as cell-based, human. The conditions noted are these: Homo sapiens, NCI-H1373, 144 h; 6 days, 100 nM 10-Cl-BBQ in medium; read-out: NCI-H1373 CTG EC50. As to the method:
The NCI-H1373 CellTiter-Glo® assay was used to determine cell numbers after TIPARP inhibition-induced cell cycle arrest, and enabled screening of compounds for cellular TIPARP inhibition potency.
Compound stock solutions (10 mM) were serially diluted in 3-fold increments in dimethyl sulfoxide. Sample aliquots (120 nL) were dispensed into Corning® 384-well Flat Clear Bottom White Polystyrene TC-treated Microplates (Corning Life Sciences, Corning, NY, USA) using an ECHO® 550 acoustic Labcyte dispenser (Beckman-Coulter Life Sciences, Indianapolis, IN, USA) to achieve final concentrations between 30 μM and 0.5 nM in the assay. This was followed by the addition of 40 μL of 1000 NCI-H1373 cells (ATCC®, Manassas, VA, USA) in complete growth medium RPMI 1640 growth medium (Thermo Fisher Scientific, Waltham, MA, USA) supplemented with 20 mg/L L-glutamate, 25 mM HEPES (4-(2-hydroxyethyl)-1-piperazineethanesulfonic acid), 10% (v/v) heat inactivated FBS (fetal bovine serum), 1% (w/v) penicillin-streptomycin, and 100 nM 10-Cl-BBQ (10-chloro-7H-benzimidazo[2,1-a]benz[de]isoquinolin-7-one, (Tocris, Minneapolis, MN, USA). Duplicate cell plates with 40 μL cells/well along with various concentrations of compounds were kept in Nunc™ Square BioAssay Dishes (Thermo Fisher Scientific) at 98% relative humidity in a 5% C02 incubator at 37° C. for 6 days. On day 7, plates were moved to ambient lab conditions for 10 minutes until the temperature equilibrated. Following equilibration, CellTiter-Glo® Luminescent Cell Viability Assay reagent (Promega™, Madison, WI, USA) was added (15 μL) to each well of the plates. After a 20 minutes incubation, luminescence was detected using a ViewLux™ microplate imager (PerkinElmer, Waltham, MA, USA). Data analysis was performed using GraphPad Prism (Dotmatics, Boston, MA, USA).

The next test addresses TIPARP GST-(TEV) (Homo sapiens (Human), UniProt Q7Z3E1). As to the kind of experiment: TR-FRET binding assay, TIPARP. The conditions noted are these: for IC50: TR-FRET, Probe 1, 2 hours incubation; for PARP1/TIPARP IC50 Ratio: ratio of PARP1 GST IC50 to TIPARP GST-(TEV) IC50. The source says:
The full-length cDNA encoding the human TIPARP (NP_001171647.1, UniProtKB-Q7Z3E1) of 657 amino acids was the template to generate the expression construct. […] The TIPARP fusion protein includes GST, glutathione S-transferase, a 26 kDa protein whose DNA sequence is frequently integrated into expression vectors for production of recombinant proteins. A […], was cloned into vector pFastBacTM 1 (Thermo Fisher Scientific) with an N-terminal GST tag followed by a TEV protease site to produce the TIPARP fusion protein, TIPARP GST-(TEV). TR-FRET assays were used to measure the binding of compounds to TIPARP and PARP1, and to characterize biochemical selectivity. Compound stock solutions (10 mM) were serially diluted in 3-fold increments in dimethyl sulfoxide (DMSO). Diluted compounds were dispensed (30 nL) into white ProxiPlate-384-well plates (PerkinElmer, Waltham, MA, USA) using an ECHO® 550 acoustic Labcyte dispenser (Beckman-Coulter Life Sciences, Indianapolis, IN, USA) to achieve a final starting concentration of 30 μM to 0.5 nM in the assay. This was followed by addition of 5 μL of 2× protein/probe mix (Table 2) made in assay buffer (Tris-HCl 50 mM pH 8.0; 5 mM MgCl2; 5 μM ZnCl2; 1 mM DTT (dithiothreitol); 0.15% BSA (bovine serum albumin) (w/v); and 0.01% TritonX-100 (w/v)) at final concentrations listed in Table 2. Subsequently, 5 μL of 2× antibody (Tb-labeled anti-GST antibody, Thermo Fisher Scientific, Waltham, MA, USA) in HEPES buffered saline was added to each well at a final concentration of 1 nM. The samples were then incubated for 2 hours under ambient conditions. Fluorescence was measured and TR-FR ET ratios were determined on an EnVision multimode plate reader (PerkinElmer) using a 520 nanometer (nm) excitation wavelength and collecting fluorescence emission at 495 nm. […] [table]
For orientation: In TR-FRET formats the signal depends on donor and acceptor labels being close together.

Another test deals with DLD-1 BRCA2 (−/−) cells. As to the kind of experiment: CellTiter-Glo DLD-1 BRCA2 (−/−) cell assay for PARP1/2 inhibition. It is filed as cell-based. The conditions noted are these: Homo sapiens, 144 h, 6 days, read-out: DLD-1 BRCA2 (−/−) CTG EC50. The text has this: (§1) The DLD-1 BRCA2 (−/−) CellTiter-Glo® assay measured the synthetic lethality of PARP1/2 inhibitors and was used as a surrogate to allow measurement of activity of both PARP1 and PARP2 in cells. If PARP1 and PARP2 are inhibited and are trapped onto chromatin during DNA replication, there is replication fork stalling and accumulation of double strand breaks. In BR CA wild-type cells, the resulting double strand DNA breaks are repaired via homologous recombination. In cells with mutation of BRCA1 or BRCA2, homologous recombination repair of DNA double strand breaks is defective, and cell death occurs after PARP1/2 inhibitor treatment (Lord C J, Ashworth A. PARP inhibitors: synthetic lethality in the clinic. Science. 2017 Mar. 17; 355(6330):1152-1158). Testing compounds in viability assays with the DLD-1-BR CA 2 (−/−) and DLD-1 parent cell enabled assessment on PARP1/2-dependent (cytotoxicity in the BRCA2 (−/−) cells only) vs. non-selective cytotoxicity in both cell lines.
(§2) Compound stock solutions (10 mM) were serially diluted in 3-fold increments in dimethyl sulfoxide (DMSO). Sample aliquots (120 nL) were dispensed into Corning® 384-well Flat Clear Bottom White Polystyrene TC-treated Microplates (Corning Life Sciences, Corning, NY, USA) using an ECHO® 550 acoustic Labcyte dispenser (Beckman-Coulter Life Sciences, Indianapolis, IN, USA) to achieve concentrations between 30 μM and 0.5 nM in the assay. In the assay, 40 μL of 500 DLD-1 parent cells (HORIZON® Therapeutics, Deerfield, IL, USA) or 40 μL of 1200 DLD-1-BRCA2 (−/−) cells (HORIZON Therapeutics) in complete growth medium containing RPMI 1640 growth medium (ThermoFisher Scientific, Waltham, MA, USA) supplemented with 20 mg/L L-glutamate, 25 mM HEPES (4-(2-hydroxyethyl)-1-piperazineethanesulfonic acid), 10% (v/v) heat inactivated FBS (fetal bovine serum), and 1% (w/v) Penicillin-Streptomycin were added.
(§3) Duplicate cell plates with 40 μL cells/well along with various concentrations of compounds were kept in Nunc™ Square BioAssay Dishes (Thermo Fisher Scientific) at 98% relative humidity in a 5% CO2 incubator at 37° C. for 6 days. On day 7, plates were moved to ambient lab conditions for 10 minutes until the temperature equilibrated. Following equilibration, CellTiter-Glo® Luminescent Cell Viability Assay reagent (Promega™, Madison, WI, USA) was added (15 μL) to each well of the plates. After a 20 minutes incubation, luminescence was detected using a ViewLux™ microplate imager (PerkinElmer, Waltham, MA, USA). Data analysis was performed using GraphPad Prism (Dotmatics, Boston, MA, USA).
(In general: Cellular ATP, detected with luciferase, serves as a proxy for viable cell number.)

The target of another test is PARP1 GST (Homo sapiens (Human), UniProt P09874). As to the kind of experiment: TR-FRET binding assay, PARP1. The conditions noted are these: Probe 2, 2 hours incubation. As to the method: TR-FRET assays were used to measure the binding of compounds to TIPARP and PARP1, and to characterize biochemical selectivity. Compound stock solutions (10 mM) were serially diluted in 3-fold increments in dimethyl sulfoxide (DMSO). Diluted compounds were dispensed (30 nL) into white ProxiPlate-384-well plates (PerkinElmer, Waltham, MA, USA) using an ECHO® 550 acoustic Labcyte dispenser (Beckman-Coulter Life Sciences, Indianapolis, IN, USA) to achieve a final starting concentration of 30 μM to 0.5 nM in the assay. This was followed by addition of 5 μL of 2× protein/probe mix (Table 2) made in assay buffer (Tris-HCl 50 mM pH 8.0; 5 mM MgCl2; 5 μM ZnCl2; 1 mM DTT (dithiothreitol); 0.15% BSA (bovine serum albumin) (w/v); and 0.01% TritonX-100 (w/v)) at final concentrations listed in Table 2. Subsequently, 5 μL of 2× antibody (Tb-labeled anti-GST antibody, Thermo Fisher Scientific, Waltham, MA, USA) in HEPES buffered saline was added to each well at a final concentration of 1 nM. The samples were then incubated for 2 hours under ambient conditions. Fluorescence was measured and TR-FR ET ratios were determined on an EnVision multimode plate reader (PerkinElmer) using a 520 nanometer (nm) excitation wavelength and collecting fluorescence emission at 495 nm.

For the next test, the system named is DLD-1 parent cells. As to the kind of experiment: CellTiter-Glo DLD-1 parent cell assay. The following applies: Homo sapiens, 144 h, 6 days, read-out: DLD-1 CTG EC50. It counts as cell-based.
Description: as §1, §2, §3

Experimental findings from patent US20250333394A1, “Tiparp Inhibitor Compounds” (AbbVie Inc., priority 2024, published 2025) are described below.

The structures appear in SMILES notation.

Chain of PARP1 GST (P09874 whole entry): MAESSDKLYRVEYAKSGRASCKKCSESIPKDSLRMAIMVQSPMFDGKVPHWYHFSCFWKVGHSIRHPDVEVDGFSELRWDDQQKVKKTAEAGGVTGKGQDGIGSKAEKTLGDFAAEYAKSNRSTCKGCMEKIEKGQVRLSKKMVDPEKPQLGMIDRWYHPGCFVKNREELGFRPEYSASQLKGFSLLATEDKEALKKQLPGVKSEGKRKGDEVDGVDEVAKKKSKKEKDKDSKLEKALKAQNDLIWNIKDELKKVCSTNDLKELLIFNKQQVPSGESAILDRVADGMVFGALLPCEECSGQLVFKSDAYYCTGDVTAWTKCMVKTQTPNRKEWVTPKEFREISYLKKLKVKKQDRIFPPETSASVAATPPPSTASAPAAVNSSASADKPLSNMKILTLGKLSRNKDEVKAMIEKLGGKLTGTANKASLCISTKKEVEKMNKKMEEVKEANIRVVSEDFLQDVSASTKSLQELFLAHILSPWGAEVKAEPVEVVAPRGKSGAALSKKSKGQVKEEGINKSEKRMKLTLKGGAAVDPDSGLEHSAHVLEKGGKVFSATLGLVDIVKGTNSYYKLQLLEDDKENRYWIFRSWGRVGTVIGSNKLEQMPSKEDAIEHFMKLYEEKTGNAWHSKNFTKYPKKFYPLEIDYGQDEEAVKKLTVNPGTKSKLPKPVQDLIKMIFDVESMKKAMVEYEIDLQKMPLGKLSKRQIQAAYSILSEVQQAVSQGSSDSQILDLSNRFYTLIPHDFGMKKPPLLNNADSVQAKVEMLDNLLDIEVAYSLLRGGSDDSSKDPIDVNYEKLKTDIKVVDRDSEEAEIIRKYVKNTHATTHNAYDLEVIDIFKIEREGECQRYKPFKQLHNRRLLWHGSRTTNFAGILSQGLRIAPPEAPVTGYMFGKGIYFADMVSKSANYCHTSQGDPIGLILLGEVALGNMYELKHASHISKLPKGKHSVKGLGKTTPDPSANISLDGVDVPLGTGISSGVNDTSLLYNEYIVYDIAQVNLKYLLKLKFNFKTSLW
Chain of TIPARP GST-(TEV) (Q7Z3E1 441-657): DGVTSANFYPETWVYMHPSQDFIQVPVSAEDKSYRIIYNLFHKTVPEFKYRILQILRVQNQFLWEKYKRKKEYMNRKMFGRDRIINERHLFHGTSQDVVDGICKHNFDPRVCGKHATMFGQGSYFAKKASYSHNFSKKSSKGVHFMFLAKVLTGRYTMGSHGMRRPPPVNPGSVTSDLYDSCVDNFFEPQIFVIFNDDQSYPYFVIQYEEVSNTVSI

Broadly, the IC50 is the concentration that inhibits the measured activity by half. Consider `C[C@@H]1CN(c2ncc(C(C)(C)O)cn2)CCN1C(=O)[C@H]1C[C@@H](c2c[nH]c(=O)c(C(F)(F)F)c2)C1` [Example 9, 5-[(1S,3s)-3-{(2R)-4-[5-(2-hydroxypropan-2-yl)pyrimidin-2-yl]-2-methylpiperazine-1-carbonyl}cyclobutyl]-3-(trifluoromethyl)pyridin-2(1H)-one], for which the EC50 with NCI-H1373 cells was 0.0677 µM; with DLD-1 BRCA2 (−/−) cells, greater than 30 µM; with DLD-1 parent cells, greater than 30 µM. Also, the IC50 at TIPARP GST-(TEV) is 0.00432 µM; at PARP1 GST, 4.36 µM. In addition, the “PARP1/TIPARP IC50 Ratio” value on TIPARP GST-(TEV) was 1010.
Turning to `C[C@H]1CN(C(=O)[C@H]2C[C@@H](c3c[nH]c(=O)c(C(F)(F)F)c3)C2)CCN1c1ncc(C(C)(C)O)cn1` [Example 10, 5-[(1R,3s)-3-{(3S)-4-[5-(2-hydroxypropan-2-yl)pyrimidin-2-yl]-3-methylpiperazine-1-carbonyl}cyclobutyl]-3-(trifluoromethyl)pyridin-2(1H)-one], the EC50 was 0.284 µM in the test on NCI-H1373 cells, greater than 30 µM in the test with DLD-1 BRCA2 (−/−) cells and greater than 30 µM in the test on DLD-1 parent cells. The results for the concentration for half-maximal inhibition (IC50) at TIPARP GST-(TEV) and on PARP1 GST were 0.0101 µM and 3.08 µM, respectively. Besides, the “PARP1/TIPARP IC50 Ratio” value on TIPARP GST-(TEV) worked out at 305.
In the case of `C[C@H]1CN(c2ncc(C(C)(C)O)cn2)CCN1C(=O)[C@H]1C[C@@H](c2c[nH]c(=O)c(C(F)(F)F)c2)C1` [Example 11, 5-[(1R,3s)-3-{(2S)-4-[5-(2-hydroxypropan-2-yl)pyrimidin-2-yl]-2-methylpiperazine-1-carbonyl}cyclobutyl]-3-(trifluoromethyl)pyridin-2(1H)-one], the EC50 was found to be 0.337 µM with NCI-H1373 cells, 1.18 µM in the test with DLD-1 BRCA2 (−/−) cells and 16 µM in the test on DLD-1 parent cells. Also, the IC50 was 0.0109 µM on TIPARP GST-(TEV) and 0.616 µM at PARP1 GST. The “PARP1/TIPARP IC50 Ratio” value at TIPARP GST-(TEV) was found to be 56.5.
With `C[C@@H]1CN(c2ncc(C(F)(F)F)cn2)CCN1C(=O)[C@H]1C[C@@H](Cc2c[nH]c(=O)c(C(F)(F)F)c2)C1` [Example 12, 5-{[(1S,3s)-3-{(2R)-2-methyl-4-[5-(trifluoromethyl)pyrimidin-2-yl]piperazine-1-carbonyl}cyclobutyl]methyl}-3-(trifluoromethyl)pyridin-2(1H)-one], the EC50 with NCI-H1373 cells is 0.0292 µM; in the test with DLD-1 BRCA2 (−/−) cells, 5.48 µM; in the test on DLD-1 parent cells, 11.1 µM. The IC50 on TIPARP GST-(TEV) stood at 0.00316 µM; on PARP1 GST, 3.65 µM. Also, the “PARP1/TIPARP IC50 Ratio” value on TIPARP GST-(TEV) amounted to 1160.
In the case of `C[C@@H]1CN(c2ncc(C(F)(F)F)cn2)C[C@H](C)N1C(=O)[C@H]1C[C@@H](Cc2c[nH]c(=O)c(C(F)(F)F)c2)C1` [Example 13, 5-{[(1s,3s)-3-{(2R,6S)-2,6-dimethyl-4-[5-(trifluoromethyl)pyrimidin-2-yl]piperazine-1-carbonyl}cyclobutyl]methyl}-3-(trifluoromethyl)pyridin-2(1H)-one], the EC50 in the test with NCI-H1373 cells is 0.0333 µM; with DLD-1 BRCA2 (−/−) cells it was 6.96 µM; in the test with DLD-1 parent cells, 11.1 µM. Moreover, the results for the IC50 on TIPARP GST-(TEV) and at PARP1 GST were 0.00379 µM and 7.38 µM, respectively. At TIPARP GST-(TEV), the “PARP1/TIPARP IC50 Ratio” value amounted to 1950.
Take `C[C@@H]1CN(C(=O)[C@H]2C[C@@H](Cc3c[nH]c(=O)c(C(F)(F)F)c3)C2)C[C@H](C)N1c1ncc(C(F)(F)F)cn1` [Example 14, 5-{[(1s,3s)-3-{(3R,5S)-3,5-dimethyl-4-[5-(trifluoromethyl)pyrimidin-2-yl]piperazine-1-carbonyl}cyclobutyl]methyl}-3-(trifluoromethyl)pyridin-2(1H)-one]: the EC50 worked out at 0.0109 µM with NCI-H1373 cells, 4.49 µM with DLD-1 BRCA2 (−/−) cells and 14.3 µM in the test on DLD-1 parent cells. Besides, the IC50 on TIPARP GST-(TEV) was determined as 0.00217 µM; at PARP1 GST, 4.11 µM. The “PARP1/TIPARP IC50 Ratio” value at TIPARP GST-(TEV) was determined as 1890.
Regarding `C[C@@H]1CN(C(=O)[C@H]2C[C@@H](Cc3c[nH]c(=O)c(C(F)(F)F)c3)C2)CCN1c1ncc(C(F)(F)F)cn1` [Example 15, 5-{[(1S,3s)-3-{(3R)-3-methyl-4-[5-(trifluoromethyl)pyrimidin-2-yl]piperazine-1-carbonyl}cyclobutyl]methyl}-3-(trifluoromethyl)pyridin-2(1H)-one], the EC50 amounted to 0.0148 µM in the test on NCI-H1373 cells, 1.38 µM in the test on DLD-1 BRCA2 (−/−) cells and 10.3 µM in the test on DLD-1 parent cells. The IC50 on TIPARP GST-(TEV) was determined as 0.00215 µM; on PARP1 GST, 0.417 µM. On TIPARP GST-(TEV), the “PARP1/TIPARP IC50 Ratio” value is recorded as 194.
